Measured values published in paper PMC6209770 (Frontiers in Pharmacology, 2018).
“And” between values parts separate entries of the source, which are not always exact repeats. Identical values can stand only once. Like-named read-outs stand apart in the source and are kept apart here.

Tests used:
[1] = test system: mice; test: Four plate test; assay type: in vivo
Procedure: (§1) Mice were placed individually in the four plate apparatus connected to the power source. After a 15 s of habituation period, each mouse crossing from one plate to another (two limbs on one plate, two on another) was punished by an electric shock (0.8 mA, 0.5 s). If the mouse continued running, it received no new shock for the following 3 s. The number of punished crossings was calculated during the 60 s of the test.

[2] = test system: mice; test: Elevated plus maze test; assay type: in vivo
[3] = target: GABAA receptor; conditions: read-out: GABAA receptors Ki ± SEM; rat cerebral cortex, [3H]-muscimol 1 nM
Procedure: The final incubation mixture (total volume 250 μl) consisted of a 50 μl solution of the test compound, 50 μl of radioligand and 150 μl of diluted membranes or the tissue suspension. The incubation was terminated by rapid filtration over glass fiber filters GF/B (PerkinElmer, United States) using 96-well FilterMate Harvester (PerkinElmer, United States). Five rapid washes were performed with ice-cold 50 mM Tris–HCl buffer (pH 7.4 or 7.6). […] Radioligand binding data were analyzed using iterative curve fitting routines GraphPad Prism 5.0 (GraphPad Software). […] At least two independent experiments were performed for each assay.

[4] = target: T1, 5-HT1A receptor (Homo sapiens, UniProt P08908); design: expressed in transfected cells; host or cells: CHO (CHO-5HT1A); method as in Kubacka et al., 2016; conditions: 5-HT1A Ca2+ assay, ref Kubacka et al., 2016, cited from earlier work
T1 sequence (P08908 1-422): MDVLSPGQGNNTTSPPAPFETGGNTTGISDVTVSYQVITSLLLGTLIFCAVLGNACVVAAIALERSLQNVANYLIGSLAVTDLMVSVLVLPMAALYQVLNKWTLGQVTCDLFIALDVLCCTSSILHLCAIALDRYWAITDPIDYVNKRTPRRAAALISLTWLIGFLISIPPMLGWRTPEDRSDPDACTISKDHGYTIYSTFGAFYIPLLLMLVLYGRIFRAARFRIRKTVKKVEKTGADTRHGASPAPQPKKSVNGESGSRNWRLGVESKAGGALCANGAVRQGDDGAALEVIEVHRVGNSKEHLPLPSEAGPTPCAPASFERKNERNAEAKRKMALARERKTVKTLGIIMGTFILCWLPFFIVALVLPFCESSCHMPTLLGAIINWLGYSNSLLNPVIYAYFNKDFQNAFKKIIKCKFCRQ

[5] = target: T2, human serotonin 5-HT1A receptor (Homo sapiens, UniProt P08908); test: cAMP assay (TR-FRET), CHO-K1 cells; conditions: 5-HT1A cAMP assay
T2 sequence (P08908 1-422): T1 sequence (P08908 1-422)

[6] = target: T1, 5-HT1A receptor; test: Tango LiveBLAzer β-arrestin recruitment assay, HTR1A-bla U2OS cells; conditions: 5-HT1A ß-arrestin assay
[7] = target: T1, 5-HT1A receptor; test: SureFire ERK-phosphorylation AlphaLISA assay, CHO-5HT1A cells; conditions: 5-HT1A pERK1/2 assay
Procedure: (§2) Serial dilutions were prepared in 96-well microplate in appropriate dilution buffer (HBSS or medium) with 0.1% BSA added, and 8–10 concentrations were tested in duplicates. At least two independent experiments were performed for each type of method. Assays were done according to manufacturer’s protocols.

[8] = target: D2 receptor (Homo sapiens, UniProt P14416); test: cell-based
Procedure: as §2

[9] = test system: mice; test: Spontaneous locomotor activity; assay type: in vivo
Procedure: Photoresistor actometers (Ugo Basile, Italy) connected to a counter for the recording of light-beam interruptions were used to investigate the effect of the compound on locomotor activity in mice. Locomotor activity was counted as the number of the light-beam crossing. It was recorded individually for each animal. After administration of the tested compound, each mouse was placed separately in a cage for 30 min habituation period. After that time, the parameter was measured for 1 min and 5 min (i.e., time equal to the observation period in four plate test and elevated plus maze test, respectively). The cages were sanitized with 70% ethanol after each mouse.

[10] = test system: mice; test: Four plate test after pretreatment with pCPA, WAY-100635 or AMPT; assay type: in vivo
Procedure: as §1
We performed the four plate test 30 min after the administration.
Control group received vehicle (1% Tween). […] We performed the four plate test 30 min after the compound administration.

[11] = test system: serotonin levels; design: method as in Imaizumi et al. (1996); conditions: 3-day treatment with pCPA 200 mg/kg; ref Imaizumi et al. (1996); cited from earlier work
[12] = target: 5-HT2A receptor (Homo sapiens, UniProt P28223); assay type: cell-based
Procedure: as §2

[13] = antagonist mode, serotonin EC80 (120 nM)
[14] = antagonist mode, serotonin EC80 (300 nM)
[15] = antagonist mode, serotonin EC80 (45 nM)

CCCN(CCC)C1CCc2cccc(O)c2C1 (stereo not drawn) [8-OH-DPAT]
Increase in the number of punished crossings ([1]; 0.5 mg/kg, 15 min before test (but not 0.25, 1 or 2 mg/kg)): 38.2%
Increase in time spent in the open arms vs non-treated control ([2]; 2 mg/kg, 15 min before test (but not 0.25, 0.5 or 1 mg/kg)): 154.3%
Effect on number of open arm entries ([2]; 8-OH-DPAT doses tested up to 2 mg/kg, 15 min before test): no effect

CN1C(=O)CN=C(c2ccccc2)c2cc(Cl)ccc21 [Diazepam, diazepam]
Ki [3]: 5.6 ± 0.7 nM
Increase in number of open arm entries vs non-treated control ([2]; mouse, in vivo): 78.5% and 73.9% and 124.6%
Increase in time spent in the open arms vs non-treated control ([2]; mouse, in vivo): 84.6% and 59.9%

COc1ccccc1N1CCN(CC(C(=O)NC(C)(C)C)c2ccccc2)CC1 (stereo not drawn) [WAY-100135]
Agonist mode Emax % ([4]; agonist mode): 2%
Antagonist mode Emax % ([4]; antagonist mode): 0%
Antagonist mode pIC50 ([4]; antagonist mode): 8.3
Kb ([4]; antagonist mode): 0.8 nM
Agonist mode Emax % ([5]; agonist mode, 10 μM forskolin): 2%
Antagonist mode Emax % [5, 13]: 8%
Antagonist mode pIC50 [5, 13]: 7.9
Kb ([5]; read-out: Antagonist mode Kb, antagonist mode, serotonin EC80 (120 nM)): 6.4 nM
Agonist mode Emax % ([6]; agonist mode, relative to serotonin): 1%
Antagonist mode Emax % [6, 14]: 5%
Antagonist mode pIC50 [6, 14]: 8.1
Kb ([6]; read-out: Antagonist mode Kb, antagonist mode, serotonin EC80 (300 nM)): 5.9 nM
Agonist mode Emax % ([7]; agonist mode): 2%
Antagonist mode Emax % [7, 15]: 0%
Antagonist mode pIC50 [7, 15]: 7.90
Kb ([7]; read-out: Antagonist mode Kb, antagonist mode, serotonin EC80 (45 nM)): 2.7 nM

CN1CCc2cccc3c2[C@H]1Cc1ccc(O)c(O)c1-3 [Apomorphine]
Emax ([8]; read-out: Agonist mode Emax %): 100%
Emax ([8]; read-out: Antagonist mode Emax %): 1%

CC1CCN(CC[C@H]2CCCN2S(=O)(=O)c2cccc(O)c2)CC1 [SB269970]
Increase in the number of punished crossings vs non-treated control ([1]; […] i.p. 30 min before test (but not 1.25 or 5 mg/kg)): 137.5%

COc1ccccc1N1CCN(CCCOc2cc(C)ccc2C)CC1.Cl [HBK-17, 1-[(2,5-dimethylphenoxy)propyl]-4-(2-methoxyphenyl)piperazine hydrochloride]
Number of crossings ± SEM ([9]; mouse, in vivo, ip, 5 mg/kg): 44.8

N[C@@H](Cc1ccc(Cl)cc1)C(=O)O (racemic) [pCPA, p-Chlorophenylalanine]
Effect on number of punished crossings ([10]; pCPA alone, 200 mg/kg i.p., three days): did not influence
Number of crossings ± SEM ([9]; pCPA experiment, pCPA 200 mg/kg): 29.4
Reduction of serotonin levels in the cortex [11]: 30%
Reduction of serotonin levels in the diencephalon [11]: 35%
Reduction of serotonin levels in the midbrain [11]: 24%
Reduction of serotonin levels in the pons with medulla [11]: 34%

CC(N)Cc1c[nH]c2ccc(O)cc12 (stereo not drawn) [α-Methylserotonin, α-methylserotonin]
Agonist mode Emax % ([12]; agonist mode): 100%
Agonist mode pEC50 ([12]; agonist mode): 8.70
Antagonist mode Emax % ([12]; antagonist mode): 1%

CC(N)(Cc1ccc(O)cc1)C(=O)O (stereo not drawn) [AMPT, α-methyl-p-tyrosine]
Effect on number of punished crossings ([10]; AMPT alone, 100 mg/kg i.p.): had no effect
Number of crossings ± SEM ([9]; AMPT experiment, AMPT 100 mg/kg): 24.5

COc1ccccc1N1CCN(CCN(C(=O)C2CCCCC2)c2ccccn2)CC1 [WAY-100635]
Effect on number of punished crossings ([10]; WAY-100635 alone, 0.3 mg/kg s.c.): did not influence
Number of crossings ± SEM ([9]; WAY-100635 experiment, WAY-100635 0.3 mg/kg): 27.9
